Assays:
dopaminerge Rezeptoren = assay: Apomorphine test (Ungerstedt): locomotor activity after subchronic TaClo i.p.; format: in vivo, Ratte; details: TaClo (Hydrochlorid) 0.2 mg/kg i.p. for four weeks, then apomorphine s.c.
Experimental: Eine durch Neurotoxine verursachte Denervation des postsynaptischen Rezeptors im dopaminergen System führt zu einer Rezeptorüberempfindlichkeit. Dadurch wird die Reaktion gegenüber verabreichten DA-Agonisten (z.B. Apomorphin) größer. Zur Überprüfung einer z.B. TaClo-bedingten Überempfindlichkeit dopaminerger Rezeptoren wird der Apomorphin-Test nach Ungerstedt (Ungerstedt et al., 1971) benutzt. Dieser läßt nach s.c. Injektion von 0.4 oder 2 mg/kg Apomorphin bei einseitiger Läsion des dopaminergen Systems im Versuchstier in den für die Entstehung des Morbus Parkinson ausschlaggebenden Basalganglien contralaterale Drehungen erkennen und nach mehr oder weniger beidseitiger Schädigung dopaminerger Strukturen bei geringem Schädigungsgrad vermehrte, bei hohem Schädigungsgrad verminderte Lokomotion im Vergleich zum Kontrollkollektiv sichtbar werden.
Die Verhaltensbeobachtungen fanden während und nach einstündiger Adaption in Beobachtungskäfigen statt. Die Aufzeichnung einzelner spezifischer Parameter wie gelaufene Wegstrecke [DT], Zeit ambulatorischer Bewegungen [AT], Anzahl stereotyper Bewegungen [BMS] und Zeiten stereotyper Bewegungen erfolgte automatisch. […]

[1] = test system: Dopaminstoffwechsel im Striatum; assay: In vivo differential pulse voltammetry of the DOPAC signal in the striatum after unilateral intranigral injection; design: species or system Ratte; details: for DOPAC-Signal im ipsilateralen Striatum: 10 µg in 2 µl intranigral, before L-DOPA
Excerpt: Die 1-Trichlormethyl-β-carboline TaClo und N-Me-TaClo wurden im Vergleich zu den bekannten Neurotoxinen MPTP und MPP^+, wie folgt, auf ihre neurotoxische Wirkung überprüft. Die zu untersuchenden Substanzen (TaClo, N-Me-TaClo, DDH-TaFlu, TaBro, MPTP und MPP^+) wurden unter Narkose mit einer Mikroglaskapillare stereotaktisch nach Koordinaten (A: 4,0 mm; L: 1,9 mm; V: 2,0 mm; ab Interaurallinie) von Paxinos und Watson (1982) unilateral in die rechte Substantia nigra pars compacta der Ratte (Han-Wistar, Zentralinstitut für Versuchstierzucht, Hannover, 250-300 g) injiziert. Appliziert wurde ein Volumen von 2 µl über einen Zeitraum von 15 Minuten.
Im Striatum, dem Projektionsareal der nigralen dopaminergen Neurone, wurde 1 und/oder 3 Wochen nach Applikation der Substanzen der Transmitterstoffwechsel untersucht. Die Untersuchung des Dopaminstoffwechsels wurde dabei in beiden Striata, dem linken Striatum, Projektionsgebiet der unbehandelten linken Substantia nigra, und dem rechten Striatum, Projektionsgebiet der behandelten rechten Substantia nigra, durchgeführt. Die Messung des Dopaminstoffwechsels erfolgte mit Hilfe der in vivo differentiellen Pulsvoltametrie (DPV) mit Mikrokohlefaserelektroden, wie sie 1980 von Gonon beschrieben wurde (Gonon et al., 1980). Dabei werden die extrazellulären Spiegel an 3,4-Dihydroxyphenylessigsäure (DOPAC) erfaßt, einem Metaboliten des Transmitters Dopamin. Die Messung wurde am narkotisierten Tier durchgeführt. Die stereotaktische Implantation von 2 Elektroden (rechtes und linkes Striatum) erfolgte nach Koordinaten (A: 8,5 mm; L: ± 3,5 mm; V: 4,5 mm; ab Interaurallinie) von Paxinos und Watson (Paxinos und Watson, 1982). Die voltametrischen Messungen wurden im Abstand von 8 Minuten durchgeführt. 40 Minuten nach Beginn der Messungen applizierte man den Tieren L-DOPA (100 mg/kg i.p.), um die Restitutionsfähigkeit des Dopaminstoffwechsels durch dieses Anti-Parkinsonmittel zu überprüfen.

[2] = test system: Substantia nigra pars compacta; assay: Histology of the substantia nigra pars compacta after unilateral intranigral injection (neuron count, tyrosine hydroxylase staining); format: in vivo, Ratte
Excerpt: Die ersten Untersuchungen von drei mit TaClo behandelten Ratten mit quantitativer Auswertung der Substantia nigra pars compacta zeigen, daß TaClo, in einer Konzentration von 0.03 µmol einseitig in die Substantia nigra injiziert, bereits nach einer Woche zu einer eindeutigen Reduktion der Neuronenzahl von 12% auf der läsionierten Seite führt. 6-OHDA, in einer annähernd doppelt so hohen Konzentration von 0.05 µmol injiziert, bewirkt einen 51% Abfall der Neuronenzahl.
Nach Anfärbung der Tyrosinhydroxylase mittels Antikörpern zur Darstellung dopaminerger Neurone zeichnen sich pathologische Veränderungen ab, die nach Behandlung mit TaClo auf der läsionierten Seite zu 3 - 6% nekrotischem Gewebsanteil am Gesamtvolumen führen. Bei 6-OHDA beträgt dieser Anteil 25%.

[3] = test system: Tyrosinhydroxylase-immunoreaktive Neuronen (TH-IR); assay: Primary neuron cell culture: number and morphology of TH-IR neurons after 24 h; format: cell-based; details: for Zahl der TH-IR Zellen/ Kulturschale: added on culture day 9, mean ± S.D.
Excerpt: (§1) In der Zellkultur zeigen 1-Trichlormethyl-β-carboline neurotoxische Eigenschaften, die mit denen von MPP^+ bzw. MPTP, den bisher bestuntersuchten dopaminergen Neurotoxinen, vergleichbar sind. Das neurotoxische Potential der chlorierten β-Carboline wurde daher mit Methoden untersucht, die sich beim Studium der Wirkung von MPTP und seiner Analoga bewährt haben (Koutsilieri et al., 1993; Michel et al., 1990; Sanchez-Ramos et al., 1988) Deutliche degenerative Veränderungen sind in vitro im Akutversuch bei einer Einwirkungszeit von 24 Stunden ab einer Konzentration von 10 - 100 µM feststellbar. Die Substanzen führen zum Zelltod dopaminerger Primärzellen aus dem Mesencephalon - Zellen, die den bei Morbus Parkinson betroffenen Neuronen des Menschen entsprechen. Dem Zelltod dieser immunhistochemisch eindeutig charakterisierten Neuronen (Antikörper auf Tyrosinhydroxylase) gehen morphologische Veränderungen der Zellen voraus. Dabei nimmt die Gesamt-Zelloberfläche ab, die Dendriten und Axone, (zuerst die sekundären und dann die primären Zellfortsätze) gehen verloren. Diese histologischen Befunde (vgl. auch Tabelle 2) wurden durch bildgebende Verfahren erhärtet und quantifiziert. Die 1-Trichlormethyl-β-carboline zeigen auch toxische Eigenschaften in Gliazellkulturen, wie durch histologische Befunde nachgewiesen werden konnte. Für die Gruppe der 1-Trichlormethyl-β-carboline läßt sich eine Beeinflussung der synaptischen Transmitterkonzentration erwarten, wie an Versuchen mit der Grundstruktur TaClo nachgewiesen werden konnte, deren Zusatz konzentrationsabhängig (IC50 50 µM) zu einer Freisetzung von Dopamin aus den Zellkulturen führt. Dies wurde durch Dopaminbestimmung in den Kulturen mit Hilfe der Hochdruckflüssigkeitschromatographie und elektrochemischer Detektion nachgewiesen. Der Einsatz von ^3H-markiertem Dopamin für Aufnahmestudien weist eine Interaktion der 1-Trichlormethyl-β-carboline mit den Dopaminaufnahmestellen in Zellkulturen nach, die eine wichtige Voraussetzung für die Aufnahme dieser Substanzen in das dopaminerge Neuron und die Entfaltung der neurotoxischen Wirkung darstellen (IC50 für TaClo 100 µM) (vgl. Tabelle 2).

[4] = test system: dopaminerge Primärzellen aus dem Mesencephalon; assay: Dopamine content / dopamine release in the cell cultures (HPLC with electrochemical detection); format: cell-based; details: for Dopamingehalt: 24 h, mean ± S.D.
Excerpt: as §1, with “Der Einsatz von ^3H-markiertem Dopamin für Aufnahmestudien weist eine Interaktion der 1-Trichlormethyl-β-carboline mit den Dopaminaufnahmestellen in Zellkulturen nach, die eine wichtige Voraussetzung für die Aufnahme dieser Substanzen in das dopaminerge Neuron und die Entfaltung der neurotoxischen Wirkung darstellen (IC50 für TaClo 100 µM) (vgl. Tabelle 2).” left out

Dopaminaufnahmestellen = Dopaminaufnahmestellen (Mus musculus, UniProt Q61327); assay: 3H-dopamine uptake in cell cultures; format: cell-based; details: 24 h, mean ± S.D.
Sequence of Dopaminaufnahmestellen (Q61327 whole entry): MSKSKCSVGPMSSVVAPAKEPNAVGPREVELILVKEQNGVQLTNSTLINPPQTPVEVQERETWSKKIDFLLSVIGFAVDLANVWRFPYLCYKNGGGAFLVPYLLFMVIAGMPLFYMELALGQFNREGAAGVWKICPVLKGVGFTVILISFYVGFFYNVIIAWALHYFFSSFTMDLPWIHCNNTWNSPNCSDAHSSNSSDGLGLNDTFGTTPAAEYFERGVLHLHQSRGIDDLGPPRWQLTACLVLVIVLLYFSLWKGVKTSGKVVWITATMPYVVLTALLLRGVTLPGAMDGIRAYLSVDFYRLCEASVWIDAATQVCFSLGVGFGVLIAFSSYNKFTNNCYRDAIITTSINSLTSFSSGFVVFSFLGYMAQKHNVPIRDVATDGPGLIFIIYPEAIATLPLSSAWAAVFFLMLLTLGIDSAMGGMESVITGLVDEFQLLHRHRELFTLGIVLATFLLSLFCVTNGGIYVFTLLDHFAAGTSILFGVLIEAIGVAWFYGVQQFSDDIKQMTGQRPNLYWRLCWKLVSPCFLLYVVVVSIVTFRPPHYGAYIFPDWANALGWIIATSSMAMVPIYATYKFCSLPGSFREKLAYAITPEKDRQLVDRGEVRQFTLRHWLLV
Excerpt: as §1, with “Der Einsatz von ^3H-markiertem Dopamin für Aufnahmestudien weist eine Interaktion der 1-Trichlormethyl-β-carboline mit den Dopaminaufnahmestellen in Zellkulturen nach, die eine wichtige Voraussetzung für die Aufnahme dieser Substanzen in das dopaminerge Neuron und die Entfaltung der neurotoxischen Wirkung darstellen (IC50 für TaClo 100 µM) (vgl. Tabelle 2).” left out

Q: ClC(Cl)(Cl)C1NCCc2c1[nH]c1ccccc21 (racemic) [TaClo] was tested. Which “lokomotorische Aktivität nach Apomorphin” value (dopaminerge Rezeptoren) did it give?
A: stieg nach der kleineren Dosierung signifikant an

Q: What about the “DOPAC-Signal im ipsilateralen Striatum” value ([1]; 1 week) of the same compound?
A: signifikant geringere DOPAC-Konzentration

Q: And the “DOPAC-Signal im ipsilateralen Striatum” value ([1]; 3 weeks)?
A: signifikant geringere DOPAC-Konzentration

Q: What about the “Reduktion der Neuronenzahl auf der läsionierten Seite” value ([2]; 0.03 µmol injected unilaterally into the substantia nigra, after one week, three rats) of the same compound?
A: 12%

Q: What about the “nekrotischer Gewebsanteil am Gesamtvolumen auf der läsionierten Seite” value ([2]; TaClo treatment (0.03 µmol), tyrosine hydroxylase antibody staining) of the same compound?
A: 3 - 6%

Q: And the “Zahl der TH-IR Zellen/ Kulturschale” value ([3]; TaClo 10 µM)?
A: 172 ± 69

Q: And the “Länge der Fortsätze” value ([3]; TaClo 10 µM, mean ± S.D.)?
A: 80 ± 20 µm

Q: And the “Zahl der primären Fortsätze” value ([3]; TaClo 10 µM, mean ± S.D.)?
A: 3.1 ± 1.1

Q: What about the “Zahl der sekundären Fortsätze” value ([3]; TaClo 10 µM, mean ± S.D.) of the same compound?
A: 2.6 ± 1.6

Q: And the Zellfläche ([3]; TaClo 10 µM, mean ± S.D.)?
A: 180 ± 49 µm^2

Q: What about the “Zahl der TH-IR Zellen/ Kulturschale” value ([3]; TaClo 25 µM) of the same compound?
A: 164 ± 67

Q: And the “Länge der Fortsätze” value ([3]; TaClo 25 µM, mean ± S.D.)?
A: 70 ± 20 µm

Q: What about the “Zahl der primären Fortsätze” value ([3]; TaClo 25 µM, mean ± S.D.) of the same compound?
A: 2.9 ± 1.0

Q: What about the Zellfläche ([3]; TaClo 25 µM, mean ± S.D.) of the same compound?
A: 192 ± 47 µm^2

Q: And the “Zahl der TH-IR Zellen/ Kulturschale” value ([3]; TaClo 50 µM)?
A: 128 ± 47

Q: What about the “Länge der Fortsätze” value ([3]; TaClo 50 µM, mean ± S.D.) of the same compound?
A: 70 ± 30 µm

Q: What about the “Zahl der primären Fortsätze” value ([3]; TaClo 50 µM, mean ± S.D.) of the same compound?
A: 2.6 ± 1.3

Q: What about the Zellfläche ([3]; TaClo 50 µM, mean ± S.D.) of the same compound?
A: 159 ± 18 µm^2

Q: What about the Zellfläche ([3]; TaClo 100 µM, mean ± S.D.) of the same compound?
A: 185 ± 43 µm^2

Q: What about the Dopamingehalt ([4]; TaClo 10 µM) of the same compound?
A: 0.7 ± 0.2 pmoles/ Kulturschale

Q: And the Dopamingehalt ([4]; TaClo 25 µM)?
A: 0.6 ± 0.2 pmoles/ Kulturschale

Q: What about the IC50 ([4]; concentration dependent, dopamine determined by HPLC with electrochemical detection, read-out: IC50 Freisetzung von Dopamin aus den Zellkulturen) of the same compound?
A: 50 µM

Q: And the “^3H-DA uptake” value (Dopaminaufnahmestellen; TaClo 10 µM)?
A: 0.05 ± 0.01 pmoles/ Kulturschale

Q: What about the “^3H-DA uptake” value (Dopaminaufnahmestellen; TaClo 25 µM) of the same compound?
A: 0.05 ± 0.01 pmoles/ Kulturschale

Q: What about the “^3H-DA uptake” value (Dopaminaufnahmestellen; TaClo 50 µM) of the same compound?
A: 0.05 ± 0.01 pmoles/ Kulturschale

Q: Which results are given for NCCc1cc(O)c(O)cc1O [6-OHDA, 6-hydroxydopamine, reference compound]?
A: Abfall der Neuronenzahl ([2]; 0.05 µmol injected): 51%; nekrotischer Gewebsanteil am Gesamtvolumen ([2]; 6-OHDA (0.05 µmol), tyrosine hydroxylase antibody staining): 25%

Q: How did the “DOPAC-Signal im ipsilateralen Striatum” value ([1]; 1 week) turn out when FC(F)(F)C1=NCCc2c1[nH]c1ccccc21 [DDH-TaFlu, 1-Trifluormethyl-3,4-didehydro-β-carbolin] was run?
A: stärkere Reduktion des DOPAC-Signals

Q: With C[n+]1ccc(-c2ccccc2)cc1 [MPP^+, 1-Methyl-4-Phenylpyridinium, reference compound] as the compound, how does the “DOPAC-Signal auf der injizierten Seite” value ([1]; MPP^+ 30 µg in 2 µl intranigral, 1 and 3 weeks) read?
A: hochsignifikante (p < 0.01) langanhaltende Verringerung des DOPAC-Signals

Q: And the “Restitutionsfähigkeit des dopaminergen Systems durch DOPA” value ([1]; MPP^+ 30 µg in 2 µl intranigral, 1 week, L-DOPA 100 mg/kg i.p.)?
A: mangelnde Restitutionsfähigkeit

Q: With CN1CC=C(c2ccccc2)CC1 [MPTP, 1-Methyl-4-phenyl-1,2,3,6-tetrahydropyridin, reference compound] as the compound, how does the “Kompensation des Neuronenverlusts durch L-DOPA” value ([1]; MPTP 174 µg in 2 µl intranigral, 1 and 3 weeks, L-DOPA 100 mg/kg i.p.) read?
A: kompensieren konnte

Q: What about the “DOPAC-Wert auf der läsionierten Seite vor L-DOPA” value ([1]; MPTP 174 µg in 2 µl intranigral, 1 week, intact side about 20%, p < 0.05) of the same compound?
A: ~6%

Q: What about the “Erniedrigung des DOPAC-Signals” value ([1]; MPTP 174 µg in 2 µl intranigral, 3 weeks) of the same compound?
A: statistisch nicht mehr signifikant

Q: With CN1CCc2c([nH]c3ccccc23)C1C(Cl)(Cl)Cl (centres unmarked) [N-Me-TaClo] as the compound, how does the “DOPAC-Signal im ipsilateralen Striatum” value ([1]; 1 week) read?
A: signifikant

Q: What about the “DOPAC-Signal im ipsilateralen Striatum” value ([1]; 3 weeks) of the same compound?
A: signifikant
